# Assay results as given in US10041937B2, “Macrophage identification agent, and identification method, sorting method, evaluation method, screening method and kit using the macrophage identifier agent” (CANON KABUSHIKI KAISHA, priority 2013, dated 2018).
# Columns and labels:
# [1] = test system: M1 macrophages and M2 macrophages differentiated from mouse bone marrow cells; assay: Subtype identification by staining and flow cytometry of M1 and M2 macrophages differentiated from mouse bone marrow cells; format: cell-based, Balb/c mouse; details: for difference in the staining intensity between the M1 macrophages and the M2 macrophages / identification: mouse bone marrow derived; for Selectivity: subtype strongly stained
# Method in brief: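 Balb/c mouse bone marrow cells were differentiated to macrophages with 50 ng/mL M-CSF over two 3–4-day periods, then polarized for 3 days to M1 (interferon-γ plus polyliposaccharide) or M2 (IL-4). Live cells (aqua dye-negative) were analysed by flow cytometry; resolution R = |FM1−FM2|/(WM1+WM2) from histogram peak positions and widths indexed subtype discrimination.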
# [2] = test system: mixture of the M1 macrophages and the M2 macrophages; assay: Sorting of subtypes from a mixture of M1 and M2 macrophages with an FACS apparatus; format: cell-based, mouse; details: compound 1 μM
# [3] = test system: M1 macrophages and M2 macrophages differentiated from THP-1 cells; assay: Identification of macrophage subtypes differentiated from human cell line THP-1; format: cell-based; details: for Resolution ratio R / Evaluation of macrophage subtype identification: M1 vs M2 macrophages differentiated from THP-1 cells; for Resolution ratio R: channel listed per compound (Table 6); for Evaluation of macrophage subtype identification: class based on resolution R (Table 6); for Peak position of M1 macrophage: THP-1-derived M1 macrophages; for Peak position of M1 macrophage / Peak position of M2 macrophage: fluorescence intensity peak by flow cytometry in the channel listed per compound (Table 6); for Peak position of M2 macrophage: THP-1-derived M2 macrophages; for Selectivity: subtype strongly stained, THP-1-derived macrophages (Table 6); for difference in the staining intensity between the M1 macrophages and the M2 macrophages / identification: THP-1 derived
# Procedure: The fluorescent signals derived from the compounds (3), (4), (6), (7), (9), (11) to (13), (15), (17), (19) to (26), (28), (30) to (33), (35), (36), (38), (42) to (45), (48) to (62), (65), (67), (74) to (76), (82), (83) and (85) and the comparative compounds (1) and (2) were measured in channels suitable to the respective compounds. Histograms were prepared by plotting fluorescence intensities obtained in the respective channels on the abscissa and plotting the numbers of cells at each fluorescence intensity on the ordinate. A difference between a fluorescence intensity (FM1) at a peak top of the histogram of the M1 macrophage and a fluorescence intensity (FM2) at a peak top of the histogram of the M2 macrophage is divided by a sum of a peak width (WM1) of the histogram of the M1 macrophage and a peak width (WM2) of the histogram of the M2 macrophage, so as to obtain a resolution R, which was used as an index of the identification ability for a subtype (see the following expression (1)). Resolution R=|FM1−FM2|/(WM1+WM2) Expression (1)
# Based on the thus obtained values of the resolution R, the identification abilities for the subtypes of the compounds (3), (4), (6), (7), (9), (11) to (13), (15), (17), (19) to (26), (28), (30) to (33), (35), (36), (38), (42) to (45), (48) to (62), (65), (67), (74) to (76), (82), (83) and (85) and the comparative compounds (1) and (2) were evaluated as any of A to C according to the following criteria, and if the resolution R was 0.15 or more, the compound was determined to be good in the subtype identification.
# The subtypes were identified by using the compound (1) in the same manner as in Example 1 except that the macrophage subtypes differentiated from the mouse bone marrow cells were changed to macrophage subtypes differentiated from a cell line established from human acute monocytic leukemia.
# The culture of subtypes was performed with reference to NPL 10. Specifically, THP-1 cells purchased from JCRB Cell Bank of National Institute of Biomedical Innovation, that is, a cell line established from human acute monocytic leukemia, were subcultured several times, and the resultant cells were dispersed to a concentration of 5.0×10^5/mL in an RPMI1640 containing 10% FBS and 1% P/S, and 5.0×10^6 cells were seeded in a 100 mm dish. The monocytes were differentiated into macrophages by incubating the resultant in the presence of 5% CO2 at 37° C. for 2 days with 500 ng of PMA added thereto. After exchanging the medium, by adding 200 ng of interferon-γ and 1 μg of polyliposaccharide (both manufactured by Pepro Tech) to the medium, the cells were differentiated to the subtype M1. Besides, by adding 200 ng of IL-4 and IL-13, the cells were differentiated to the subtype M2. After incubation performed in the presence of 5% CO2 at 37° C. for 24 hours, the resultant was rinsed with PBS, and PBS containing 0.25% trypsin and 1 mM EDTA (ethylenediaminetetraacetic acid) was used for collecting, from the dish, the macrophages having been differentiated to the subtypes M1 and M2.
# Specifically, fluorescent signals derived from the compounds (1) (3) (4) (12) and (15) were measured by using the channels which are appropriate for each of the compounds and the identification abilities for the subtypes of the compounds were evaluated based on the values of the resolution R.
# [4] = M1 vs M2 macrophages from mouse bone marrow cells, general formula (6) dyes (Table 7)
# [5] = class based on resolution R, general formula (6) dyes (Table 7)
# [6] = mouse bone marrow-derived M1 macrophages, channel listed per compound, general formula (6) dyes (Table 7)
# [7] = mouse bone marrow-derived M2 macrophages, channel listed per compound, general formula (6) dyes (Table 7)
# [8] = R=|FM1−FM2|/(WM1+WM2), compound 1 μM
# [9] = fluorescence intensity at peak top of histogram, compound 1 μM, 37° C., 30 minutes
smiles,measurement,setting,value
CC1(C)C(/C=C/C=C/C=C/C=C2\N(CCCCS(=O)(=O)[O-])c3ccc4ccccc4c3C2(C)C)=[N+](CCCCS(=O)(=O)[O-])c2ccc3ccccc3c21.[Na+] [compound (86)],Resolution ratio R,[1]; [4],0.602
same,Evaluation of macrophage subtype identification,[1]; [5],"A (The compound is very good in the subtype identification (namely, the resolution R is 0.5 or more))"
same,Peak position of M1 macrophage,[1]; [6],2.27
same,Peak position of M2 macrophage,[1]; [7],6.37
same,sorting of identified M1 and M2 macrophages,[2]; FACS apparatus,could be each sorted with an FACS apparatus
same,subtype more strongly stained,[2]; mixed M1 and M2 macrophages,stain the M2 macrophages more strongly than the M1 macrophages
O=C(O)CCN1C(=O)/C(=C\c2ccc3c(c2)C2CCCC2N3Cc2ccccc2)SC1=S (centres unmarked) [compound (3)],Resolution ratio R,[1]; [8],0.622
same,Peak position of M1 macrophage,[1]; [9],11.2
same,Peak position of M2 macrophage,[1]; [9],25.0
same,Evaluation of macrophage subtype identification,[1]; rated from resolution R,"A (The compound is very good in the subtype identification (namely, the resolution R is 0.5 or more))"
same,Resolution ratio R,[3],0.257
same,Evaluation of macrophage subtype identification,[3],"B (the compound is good in the subtype identification (namely, the resolution R is 0.15 or more and less than 0.5))"
same,Peak position of M1 macrophage,[3],9.63
same,Peak position of M2 macrophage,[3],12.3
same,Selectivity,[3],M2
CCN1c2ccc(/C=C3/SC(=S)N(CCC(=O)O)C3=O)cc2C2CCCC21 (centres unmarked) [(15)],Resolution ratio R,[1]; [8],0.700
same,Peak position of M1 macrophage,[1]; [9],7.52
same,Peak position of M2 macrophage,[1]; [9],10.5
same,Evaluation of macrophage subtype identification,[1]; rated from resolution R,"A (The compound is very good in the subtype identification (namely, the resolution R is 0.5 or more))"
same,Resolution ratio R,[3],0.216
same,Evaluation of macrophage subtype identification,[3],"B (the compound is good in the subtype identification (namely, the resolution R is 0.15 or more and less than 0.5))"
same,Peak position of M1 macrophage,[3],5.62
same,Peak position of M2 macrophage,[3],7.4
same,Selectivity,[3],M2
COC(=O)CCC(C(=O)OC)N1C(=O)/C(=C\c2ccc3c(c2)C2CCCC2N3c2ccc(OC)cc2)SC1=S (centres unmarked) [compound (4)],Resolution ratio R,[1]; [8],1.125
same,Peak position of M1 macrophage,[1]; [9],158
same,Peak position of M2 macrophage,[1]; [9],45.4
same,Evaluation of macrophage subtype identification,[1]; rated from resolution R,"A (The compound is very good in the subtype identification (namely, the resolution R is 0.5 or more))"
same,Resolution ratio R,[3],0.372
same,Evaluation of macrophage subtype identification,[3],"B (the compound is good in the subtype identification (namely, the resolution R is 0.15 or more and less than 0.5))"
same,Peak position of M1 macrophage,[3],26.5
same,Peak position of M2 macrophage,[3],17.9
same,Selectivity,[3],M1
"CCC1=C(CC)c2cc3[nH]c(cc4nc(cc5[nH]c(cc1n2)c(CC)c5CC)C(CC)=C4CC)c(CC)c3CC [(1), reference compound]",Resolution ratio R,[1]; [4],0.006
same,Resolution ratio R,"[1]; M1 vs M2 macrophages from mouse bone marrow cells, general formula (10) dyes (Table 8)",0.006
same,Resolution ratio R,"[1]; M1 vs M2 macrophages from mouse bone marrow cells, general formula (11) dyes (Table 9)",0.006
same,Resolution ratio R,[1]; [8],0.006
same,Evaluation of macrophage subtype identification,[1]; [5],"C (the compound cannot identify the subtypes (namely, the resolution R is less than 0.15))"
same,Evaluation of macrophage subtype identification,"[1]; class based on resolution R, general formula (10) dyes (Table 8)","C (the compound cannot identify the subtypes (namely, the resolution R is less than 0.15))"
same,Evaluation of macrophage subtype identification,"[1]; class based on resolution R, general formula (11) dyes (Table 9)","C (the compound cannot identify the subtypes (namely, the resolution R is less than 0.15))"
same,Peak position of M1 macrophage,[1]; [9],1.70
same,Peak position of M2 macrophage,[1]; [9],1.86
same,difference in the staining intensity between the M1 macrophages and the M2 macrophages / identification,[1],no difference in the staining intensity
same,Peak position of M1 macrophage,[1]; [6],1.70
same,Peak position of M1 macrophage,"[1]; mouse bone marrow-derived M1 macrophages, channel listed per compound, general formula (10) dyes (Table 8)",1.70
same,Peak position of M1 macrophage,"[1]; mouse bone marrow-derived M1 macrophages, channel listed per compound, general formula (11) dyes (Table 9)",1.70
same,Peak position of M2 macrophage,[1]; [7],1.86
same,Peak position of M2 macrophage,"[1]; mouse bone marrow-derived M2 macrophages, channel listed per compound, general formula (10) dyes (Table 8)",1.86
same,Peak position of M2 macrophage,"[1]; mouse bone marrow-derived M2 macrophages, channel listed per compound, general formula (11) dyes (Table 9)",1.86
same,Evaluation of macrophage subtype identification,[1]; rated from resolution R,"C (the compound cannot identify the subtypes (namely, the resolution R is less than 0.15))"
same,Selectivity,[1]; general formula (6) dyes (Table 7),No
same,Selectivity,[1]; general formula (10) dyes (Table 8),No
same,difference in the staining intensity between the M1 macrophages and the M2 macrophages / identification,[3],no difference in the staining intensity
"COc1ccc(N2c3ccc(/C=C4\C(=O)NC(=O)C(C#N)=C4C)cc3C3CCCC32)cc1 (centres unmarked) [(2), reference compound]",Resolution ratio R,[1]; [8],0.007
same,Peak position of M1 macrophage,[1]; [9],0.86
same,Peak position of M2 macrophage,[1]; [9],1.05
same,difference in the staining intensity between the M1 macrophages and the M2 macrophages / identification,[1],no difference in the staining intensity
same,Evaluation of macrophage subtype identification,[1]; rated from resolution R,"C (the compound cannot identify the subtypes (namely, the resolution R is less than 0.15))"
same,difference in the staining intensity between the M1 macrophages and the M2 macrophages / identification,[3],no difference in the staining intensity
O=C(O)CN1C(=O)/C(=C\c2cc(Br)c3c(c2)C2CCCC2N3c2ccc(Br)cc2)SC1=S (centres unmarked) [(12)],Resolution ratio R,[1]; [8],0.594
same,Peak position of M1 macrophage,[1]; [9],50.7
same,Peak position of M2 macrophage,[1]; [9],97.7
same,Evaluation of macrophage subtype identification,[1]; rated from resolution R,"A (The compound is very good in the subtype identification (namely, the resolution R is 0.5 or more))"
same,Resolution ratio R,[3],0.276
same,Evaluation of macrophage subtype identification,[3],"B (the compound is good in the subtype identification (namely, the resolution R is 0.15 or more and less than 0.5))"
same,Peak position of M1 macrophage,[3],37.4
same,Peak position of M2 macrophage,[3],46.5
same,Selectivity,[3],M2
